Experimental data: patent US7605155B2, “Substituted pyrazolo[1,5-a]pyrimidines as protein kinase inhibitors” (priority 2002, dated 2009)

Molecular target: CDK2 (either cyclin A or E-dependent) (Homo sapiens, UniProt P24941)
Assay: biochemical
Text: BACULOVIRUS CONSTRUCTIONS: Cyclins A and E were cloned into pFASTBAC (Invitrogen) by PCR, with the addition of a GluTAG sequence (EYMPME) at the amino-terminal end to allow purification on anti-GluTAG affinity columns. […] CDK2 was also cloned into pFASTBAC by PCR, with the addition of a haemaglutinin epitope tag at the carboxy-terminal end ([…]).
ENZYME PRODUCTION: Recombinant baculoviruses expressing cyclins A, E and CDK2 were infected into SF9 cells at a multiplicity of infection (MOI) of 5, for 48 hrs. Cells were harvested by centrifugation at 1000 RPM for 10 minutes. Cyclin-containing (E or A) pellets were combined with CDK2 containing cell pellets and lysed on ice for 30 minutes in five times the pellet volume of lysis buffer containing 50 mM Tris pH 8.0, 0.5% NP40, 1 mM DTT and protease/phosphatase inhibitors (Roche Diagnostics GmbH, Mannheim, Germany). Mixtures were stirred for 30-60 minutes to promote cyclin-CDK2 complex formation. Mixed lysates were then spun down at 15000 RPM for 10 minutes and the supernatant retained. 5 ml of anti-GluTAG beads (for one liter of SF9 cells) were then used to capture cyclin-CDK2 complexes. Bound beads were washed three times in lysis buffer. Proteins were competitively eluted with lysis buffer containing 100-200 ug/mL of the GluTAG peptide. Eluate was dialyzed overnight in 2 liters of kinase buffer containing 50 mM Tris pH 8.0, 1 mM DTT, 10 mM MgCl2, 100 uM sodium orthovanadate and 20% glycerol. Enzyme was stored in aliquots at −70° C.
IN VITRO KINASE ASSAY: CDK2 kinase assays (either cyclin A or E-dependent) were performed in low protein binding 96-well plates (Corning Inc, Corning, N.Y.). Enzyme was diluted to a final concentration of 50 μg/ml in kinase buffer containing 50 mM Tris pH 8.0, 10 mM MgCl2, 1 mM DTT, and 0.1 mM sodium orthovanadate. The substrate used in these reactions was a biotinylated peptide derived from Histone H1 (from Amersham, UK). The substrate was thawed on ice and diluted to 2 μM in kinase buffer. Compounds were diluted in 10% DMSO to desirable concentrations. For each kinase reaction, 20 μl of the 50 μg/ml enzyme solution (1 μg of enzyme) and 20 μl of the […] substrate solution were mixed, then combined with 10 μl of diluted compound in each well for testing. […] The reaction was allowed to run for 1 hour at room temperature. The reaction was stopped by adding 200 μl of stop buffer containing 0.1% Triton X-100, 1 mM ATP, 5 mM EDTA, and 5 mg/ml streptavidine coated SPA beads (from Amersham, UK) for 15 minutes. The SPA beads were then captured onto a 96-well GF/B filter plate (Packard/Perkin Elmer Life Sciences) using a Filtermate universal harvester (Packard/Perkin Elmer Life Sciences.). Non-specific signals were eliminated by washing the beads twice with 2M NaCl then twice with 2 M NaCl with 1% phosphoric acid. The radioactive signal was then measured using a TopCount 96 well liquid scintillation counter (from Packard/Perkin Elmer Life Sciences).
IC50 DETERMINATION: Dose-response curves were plotted from inhibition data generated, each in duplicate, from 8 point serial dilutions of inhibitory compounds. Concentration of compound was plotted against % kinase activity, calculated by CPM of treated samples divided by CPM of untreated samples. To generate IC50 values, the dose-response curves were then fitted to a standard sigmoidal curve and IC50 values were derived by nonlinear regression analysis. These kinase activities were generated by using cyclin A or cyclin E using the above-described assay.

| Compound | IC50 |
| --- | --- |
| Nc1cc(C2CCCNC2)nc2c(-c3ccc(CO)cc3)cnn12 (stereo not shown) | 1400 nM |
| Nc1cc(C2CCCNC2)nc2c(-c3cncs3)cnn12 (stereo not shown) | 210 nM |
| CC(C)Cc1ncc(-c2cnn3c(N)cc(C4CCCNC4)nc23)s1 (stereo not shown) | 1300 nM |
| Nc1cc(C2CCCNC2)nc2c(-c3ncon3)cnn12 (stereo not shown) | 2500 nM |
| N#CCc1ccc(-c2cnn3c(N)cc(C4CCCNC4)nc23)cc1 (stereo not shown) | 12000 nM |
| Nc1cc(C2CCCNC2)nc2c(-c3cscn3)cnn12 (stereo not shown) | 10000 nM |
| Nc1c(Br)c(C2CCCNC2)nc2c(-c3ccc4c(c3)OCO4)cnn12 (stereo not shown) | 570 nM |
| N#Cc1ccc(-c2cnn3c(N)c(Br)c(C4CCCNC4)nc23)cc1 (stereo not shown) | 240 nM |
| Nc1c(Br)c(C2CCCNC2)nc2c(-c3cncs3)cnn12 (stereo not shown) | 96 nM |
| Nc1c(Br)c(C2CCCNC2)nc2c(-c3cscn3)cnn12 (stereo not shown) | 5800 nM |
| Cn1cc(-c2cnn3c(N)c(Br)c(N4CC[C@H](N)C4)nc23)cn1 | 1200 nM |
| Nc1c(Br)c(C2CCCNC2)nc2c(-c3cnccn3)cnn12 (stereo not shown) | 4700 nM |
| Cn1cc(-c2cnn3c(NC4CCCC4)cc(C4CCCNC4)nc23)cn1 (stereo not shown) | 25000 nM |
| Cn1cc(-c2cnn3c(NCc4ccccc4)cc(C4CCCNC4)nc23)cn1 (stereo not shown) | 31000 nM |
| CCNc1c(Br)c(C2CCCNC2)nc2c(-c3cnn(C)c3)cnn12 (stereo not shown) | 5700 nM |
| Nc1cc(C2CCCNC2)nc2c(-c3cnoc3)cnn12 (stereo not shown) | 790 nM |
| Nc1cc(C2CCCNC2)nc2c(-c3cnn(CCO)c3)cnn12 (stereo not shown) | 4300 nM |
| CC(C)n1cc(-c2cnn3c(N)cc(C4CCCNC4)nc23)cn1 (stereo not shown) | 8300 nM |
| Cn1cc(-c2cnn3c(N)c(I)c(C4CCCNC4)nc23)cn1 (stereo not shown) | 20 nM |
| N#Cc1ccc(-c2cnn3c(N)cc(C4CCCNC4)nc23)cn1 (stereo not shown) | 2300 nM |
| N#Cc1ccc(-c2cnn3c(N)c(Br)c(C4CCCNC4)nc23)cn1 (stereo not shown) | 880 nM |
| Nc1c(Br)c(C2CCCNC2)nc2c(-c3cnoc3)cnn12 (stereo not shown) | 160 nM |
| Nc1c(Br)c(C2CCCNC2)nc2c(-c3cnn(CCO)c3)cnn12 (stereo not shown) | 200 nM |
| N#Cc1cncc(-c2cnn3c(N)c(Br)c(C4CCCNC4)nc23)c1 (stereo not shown) | 5800 nM |
| CCn1cc(-c2cnn3c(N)c(Br)c(C4CCCNC4)nc23)cn1 (stereo not shown) | 410 nM |

| Compound | IC50 |
| --- | --- |
| CN(C)C(=O)Cn1cc(-c2cnn3c(N)c(Br)c(C4CCCNC4)nc23)cn1 (stereo not shown) | 1400 nM |
| Cn1cc(-c2cnn3c(N)c(Br)c(C4CCCN(CCO)C4)nc23)cn1 (stereo not shown) | 1750 nM |
| N#Cc1cc(-c2cnn3c(N)c(Br)c(C4CCCNC4)nc23)co1 (stereo not shown) | 140 nM |
| N#Cc1cc(-c2cnn3c(N)c(Cl)c(C4CCCNC4)nc23)co1 (stereo not shown) | 210 nM |
| Nc1cc(C2CCCNC2)nc2c(-c3coc(C=NO)c3)cnn12 (stereo not shown) | 40 nM |
| Nc1cc(C2CCCNC2)nc2c(-c3cn[nH]c3)cnn12 (stereo not shown) | 1500 nM |
| COC(=O)[C@@H]1CC[C@H](c2cc(N)n3ncc(-c4cnn(C)c4)c3n2)CN1 | 14000 nM |
| Cn1cc(-c2cnn3c(N)c(Br)c(CC4CNCCO4)nc23)cn1 (stereo not shown) | 6100 nM |
| Cn1cc(-c2cnn3c(N)c(Br)c(CC4CNCCN4)nc23)cn1 (stereo not shown) | 5700 nM |
| Cn1cc(-c2cnn3c(N)cc(C4(F)CCCNC4)nc23)cn1 (stereo not shown) | 6000 nM |
| Cn1cc(-c2cnn3c(N)c(Br)c(C4CCCCN4)nc23)cn1 (stereo not shown) | 28000 nM |
| Cn1cc(-c2cnn3c(N)c(Br)c(C4CNCCNC4)nc23)cn1 | 720 nM |
| Cn1cc(-c2cnn3c(N)cc([C@H]4CC[C@@H](CO)NC4)nc23)cn1 | 12000 nM |
| C/C(=N\O)[C@@H]1CC[C@H](c2nc3c(-c4cnn(C)c4)cnn3c(N)c2Br)CN1 | 520 nM |
| Cn1cc(-c2cnn3c(N)c(Br)c([C@H]4CCC[C@@H](N)C4)nc23)cn1 | 440 nM |
| Cn1cc(-c2cnn3c(N)cc([C@@H]4CC[C@@H](N)C4)nc23)cn1 | 5600 nM |
| Cn1cc(-c2cnn3c(N)cc([C@@H]4CC[C@H](N)C4)nc23)cn1 | 3700 nM |
| Cn1cc(-c2cnn3c(N)c(Br)c([C@@H]4CC[C@@H](N)C4)nc23)cn1 | 120 nM |
| Cn1cc(-c2cnn3c(N)c(Br)c([C@@H]4CC[C@H](N)C4)nc23)cn1 | 240 nM |
| CC(N)CCc1nc2c(-c3cnn(C)c3)cnn2c(N)c1Br (stereo not shown) | 1200 nM |
| CC(C)N1CCNCC(c2nc3c(-c4cnn(C)c4)cnn3c(N)c2Br)C1 (stereo not shown) | 2600 nM |
| CC(=O)N1CCNCC(c2nc3c(-c4cnn(C)c4)cnn3c(N)c2Br)C1 (stereo not shown) | 2600 nM |
| Cn1cc(-c2cnn3c(N)c(Br)c(C4CNCCN(S(C)(=O)=O)C4)nc23)cn1 (stereo not shown) | 3100 nM |
| Cn1cc(-c2cnn3c(N)c(Br)c(CCNCc4ccccc4)nc23)cn1 | 3700 nM |
